Experimental data from ChEMBL document CHEMBL1201862, “PubChem BioAssay data set” (2004).
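All cell lines were grown in 96-well plates and treated with compound for 48 hours. The concentration for 50% growth inhibition is given as GI50.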 Active and inactive are the calls of the source. Rule as the data show it: active = GI50 up to about 1.1 µM and inactive = higher.

Assays:
Assay in all cases: growth of human tumour cells (NCI), 48 h
[1] = system: DLD-1
[2] = system: DMS-114
[3] = system: DMS-273
[4] = system: HOP-18
[5] = system: KM-20L2
[6] = system: LXFL 529
[7] = system: M19-MEL
[8] = system: SNB-78
[9] = system: RXF 631

| Structure (SMILES) | GI50 [1] | GI50 [2] | GI50 [3] | GI50 [4] | GI50 [5] | GI50 [6] | GI50 [7] | GI50 [8] | GI50 [9] |
| --- | --- | --- | --- | --- | --- | --- | --- | --- | --- |
| O=C(CSc1nnc(Cc2ccccc2)o1)Nc1ccccc1 | > 100 µM (inactive) | > 100 µM (inactive) | > 100 µM (inactive) | > 100 µM (inactive) | > 100 µM (inactive) | > 100 µM (inactive) | > 100 µM (inactive) | > 100 µM (inactive) | – |
| O=C1Cc2ccccc2CCc2ccccc21 | > 100 µM (inactive) | 47 µM (inactive) | > 100 µM (inactive) | > 100 µM (inactive) | > 100 µM (inactive) | > 100 µM (inactive) | > 100 µM (inactive) | > 100 µM (inactive) | – |
| CC1=NN(c2ccccc2)C(=O)/C1=C\c1ccc([N+](=O)[O-])cc1 | 36 µM (inactive) | 20.8 µM (inactive) | 25 µM (inactive) | < 0.01 µM (active) | 22.8 µM (inactive) | 32.1 µM (inactive) | – | 28.4 µM (inactive) | 29.5 µM (inactive) |
| C=C1CCC2(C(C)=O)COC1(C)O2 (stereo not drawn) | > 100 µM (inactive) | > 100 µM (inactive) | > 100 µM (inactive) | > 100 µM (inactive) | – | – | > 100 µM (inactive) | – | – |
| O=C(c1ccccc1)c1ccc(OCCOc2ccc(Nc3ccccc3)cc2)cc1 | 50.9 µM (inactive) | 6.84 µM (inactive) | > 100 µM (inactive) | 65.5 µM (inactive) | > 100 µM (inactive) | 41.1 µM (inactive) | 70.3 µM (inactive) | 35.2 µM (inactive) | 17.7 µM (inactive) |
| O=C1c2ccccc2C(=O)C12CCc1ccccc12 | > 100 µM (inactive) | > 100 µM (inactive) | > 100 µM (inactive) | > 100 µM (inactive) | > 100 µM (inactive) | > 100 µM (inactive) | > 100 µM (inactive) | > 100 µM (inactive) | > 100 µM (inactive) |
| NC(=O)CCC(NC(=O)Cc1ccccc1)C(=O)O (stereo not drawn) | > 2470 µM (inactive) | > 2470 µM (inactive) | > 2470 µM (inactive) | – | > 2470 µM (inactive) | > 2470 µM (inactive) | > 2470 µM (inactive) | – | – |
| CCOC(=O)C1=C(O)C(=O)c2c(OC)ccc(OC)c2C1=O | > 100 µM (inactive) | > 100 µM (inactive) | > 100 µM (inactive) | 32.5 µM (inactive) | > 100 µM (inactive) | – | > 100 µM (inactive) | > 100 µM (inactive) | – |
| CCOC(=O)NC(=O)c1cn(-c2ccc(CCOC(=O)CCCCCCCCC(=O)OCCc3ccc(-n4cc(C(=O)NC(=O)OCC)c(=O)[nH]c4=O)cc3)cc2)c(=O)[nH]c1=O | > 100 µM (inactive) | > 100 µM (inactive) | – | > 100 µM (inactive) | > 100 µM (inactive) | > 100 µM (inactive) | > 100 µM (inactive) | > 100 µM (inactive) | > 100 µM (inactive) |
| Oc1ccc(-c2c3ccccc3c(-c3ccc(O)cc3)c3ccccc23)cc1 | > 100 µM (inactive) | > 100 µM (inactive) | > 100 µM (inactive) | > 100 µM (inactive) | > 100 µM (inactive) | 91.6 µM (inactive) | > 100 µM (inactive) | > 100 µM (inactive) | – |
| O=C(c1nc2ccccc2nc1O)C(O)c1ccccc1 (stereo not drawn) | > 100 µM (inactive) | 48.6 µM (inactive) | 60.3 µM (inactive) | – | 46.5 µM (inactive) | 50.2 µM (inactive) | 90.8 µM (inactive) | > 100 µM (inactive) | – |
| Cc1ccc(/C=C/C(=O)c2sc(-c3nc(C)c(C(=O)/C=C/c4ccc(C)cc4)s3)nc2C)cc1 | > 100 µM (inactive) | > 100 µM (inactive) | > 100 µM (inactive) | > 100 µM (inactive) | > 100 µM (inactive) | – | > 100 µM (inactive) | > 100 µM (inactive) | > 100 µM (inactive) |
| COc1c(CC(C)=O)c2ccccc2n1C(C)=O | > 100 µM (inactive) | – | > 100 µM (inactive) | > 100 µM (inactive) | > 100 µM (inactive) | > 100 µM (inactive) | > 100 µM (inactive) | > 100 µM (inactive) | > 100 µM (inactive) |
| C/C(CC(=O)Nc1cccc(Cl)c1C)=N\NC(N)=S | > 100 µM (inactive) | – | – | – | > 100 µM (inactive) | > 100 µM (inactive) | > 100 µM (inactive) | > 100 µM (inactive) | > 100 µM (inactive) |
| CCOP12(OCC)NC(=O)OC1(C(F)(F)F)c1ccccc1O2 (stereo not drawn) | > 100 µM (inactive) | > 100 µM (inactive) | > 100 µM (inactive) | > 100 µM (inactive) | – | > 100 µM (inactive) | > 100 µM (inactive) | > 100 µM (inactive) | – |
| NNC(=O)CCC(=O)Nc1cc(Cl)c(Cl)cc1Cl | > 100 µM (inactive) | > 100 µM (inactive) | > 100 µM (inactive) | – | > 100 µM (inactive) | > 100 µM (inactive) | > 100 µM (inactive) | > 100 µM (inactive) | > 100 µM (inactive) |
| Cc1ccc(NC(=O)CC2C(=O)Nc3ccccc3S2(=O)=O)c(C)c1 (stereo not drawn) | 14.6 µM (inactive) | 15 µM (inactive) | 10.7 µM (inactive) | – | 13.8 µM (inactive) | 16.7 µM (inactive) | – | 18.1 µM (inactive) | – |
| O=S(O)CCCCCSSCCCCSSCCCCCS(=O)O | > 100 µM (inactive) | > 100 µM (inactive) | > 100 µM (inactive) | > 100 µM (inactive) | > 100 µM (inactive) | 79.6 µM (inactive) | > 100 µM (inactive) | > 100 µM (inactive) | > 100 µM (inactive) |
| C[C@@H]1C[C@@H](O)[C@]2(O)O[C@@H]3C[C@@]4(C=O)[C@@H](CC[C@@H]5[C@@H]4CC[C@]4(C)[C@@H](C6=CC(=O)OC6)CC[C@]54O)C[C@H]3O[C@@H]2O1 [CALACTIN] | 0.012 µM (active) | 0.00141 µM (active) | 0.00455 µM (active) | 0.0042 µM (active) | 0.0182 µM (active) | 0.00501 µM (active) | 0.0206 µM (active) | 0.0106 µM (active) | – |
